This note sets out measurements from ChEMBL document CHEMBL1141965, “Preparation of human Melanocortin-4 receptor agonist libraries: linear peptides X-Y-DPhe7-Arg8-Trp(or 2-Nal)9-Z-NH2” (Bioorg Med Chem Lett, 2005).

The target in experiment [1] is Melanocortin receptor 4 (Homo sapiens, UniProt P32245). Put plainly: Agonist activity in HEK293 cells transfected with human MC4R by cAMP accumulation. The format is functional, cell-based.
The target of experiment [2] is Melanocyte-stimulating hormone receptor (Homo sapiens, UniProt Q01726). In words: Agonist activity in HEK293 cells transfected with human MC1R by cAMP accumulation. The format is functional, cell-based. A general note: Changes in cAMP serve as a functional read-out for many G protein-coupled receptors.
Chain of Melanocyte-stimulating hormone receptor (Q01726 whole entry): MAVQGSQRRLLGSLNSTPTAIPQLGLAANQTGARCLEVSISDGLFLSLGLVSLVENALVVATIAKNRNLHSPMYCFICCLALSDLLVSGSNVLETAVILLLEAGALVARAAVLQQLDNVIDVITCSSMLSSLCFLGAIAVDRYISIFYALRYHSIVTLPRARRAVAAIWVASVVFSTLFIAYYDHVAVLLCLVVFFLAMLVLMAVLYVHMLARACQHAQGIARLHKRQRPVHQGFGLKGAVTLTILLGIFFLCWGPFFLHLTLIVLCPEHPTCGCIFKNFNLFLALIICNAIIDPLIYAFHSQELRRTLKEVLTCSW

Chain of Melanocortin receptor 4 (P32245 whole entry): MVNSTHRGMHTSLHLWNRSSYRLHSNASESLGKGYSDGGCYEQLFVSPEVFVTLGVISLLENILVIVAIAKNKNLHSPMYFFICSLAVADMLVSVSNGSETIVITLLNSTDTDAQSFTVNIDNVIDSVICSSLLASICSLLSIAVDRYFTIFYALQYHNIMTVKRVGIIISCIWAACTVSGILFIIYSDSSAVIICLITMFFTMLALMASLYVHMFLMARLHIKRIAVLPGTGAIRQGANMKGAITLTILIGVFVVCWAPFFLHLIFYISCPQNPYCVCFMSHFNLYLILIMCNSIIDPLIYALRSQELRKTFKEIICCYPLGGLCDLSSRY

In general, EC50 refers to the concentration needed to bring the measured effect to its halfway point. A low value points to a more potent agent. Regarding `CCCCC(=O)NC1(C(=O)N[C@H](Cc2ccccc2)C(=O)N[C@@H](CCCN=C(N)N)C(=O)N[C@@H](Cc2ccc3ccccc3c2)C(=O)NCC(N)=O)CCc2c(Br)cccc2C1` (some centres not stated), the values for the EC50 in experiment [1] and in experiment [2] were 0.2 µM and 2.9 µM, respectively.
